The values below are quoted from earlier work in patent US20180177744A1, “METHOD OF TREATING PAIN AND […] A HYBRID MIXTURE OF S-KETAMINE AND R-KETAMINE” (priority 2016, published 2018).

The conditions of data set [1]: liquid formulation at 30 mg to 50 mg, intranasal (IN) route.
The conditions of data set [2]: in vivo.
The conditions of data set [3]: mice; versus esketamine.
Data set [4] deals with dopamine transporters. The conditions noted are these: versus arketamine.
Assay in data set [5]: not given
The source holds these as a separate data set.

The conditions of data set [6]: for anaesthetic potency relative to arketamine (R-isomer): clinically, versus arketamine.
Data set [7] has as its system sigma receptors.
The test system of data set [8] is phencyclidine binding sites on the NMDA receptors. To be noted: versus arketamine.

Where two headings read alike, the source gives them in different places.

Sequence of dopamine transporters (Q01959 whole entry): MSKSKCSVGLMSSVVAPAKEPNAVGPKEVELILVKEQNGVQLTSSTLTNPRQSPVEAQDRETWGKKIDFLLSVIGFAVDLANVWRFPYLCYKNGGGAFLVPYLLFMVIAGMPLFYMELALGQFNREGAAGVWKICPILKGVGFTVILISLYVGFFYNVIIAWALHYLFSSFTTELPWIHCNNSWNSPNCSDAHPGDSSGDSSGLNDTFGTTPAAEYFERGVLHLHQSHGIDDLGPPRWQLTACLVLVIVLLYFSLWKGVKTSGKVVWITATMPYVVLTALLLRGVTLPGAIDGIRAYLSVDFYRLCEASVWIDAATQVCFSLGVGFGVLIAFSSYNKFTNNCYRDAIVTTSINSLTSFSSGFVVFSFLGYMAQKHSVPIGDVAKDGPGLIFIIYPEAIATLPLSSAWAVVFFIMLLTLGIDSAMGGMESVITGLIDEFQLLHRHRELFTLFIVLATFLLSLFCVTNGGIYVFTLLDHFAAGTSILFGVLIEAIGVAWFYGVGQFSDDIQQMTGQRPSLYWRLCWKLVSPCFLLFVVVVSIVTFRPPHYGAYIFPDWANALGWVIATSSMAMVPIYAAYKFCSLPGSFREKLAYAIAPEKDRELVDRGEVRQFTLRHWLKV

For `CNC1(c2ccccc2Cl)CCCCC1=O` (racemic) [racemic ketamine, 2-(2-chlorphenyl)-2-(methylamino)-cyclohexanone], in [1], the “ability to stop acute and/or breakthrough pain” value is “stop acute and/or breakthrough pain”.

Turning to `CN[C@@]1(c2ccccc2Cl)CCCCC1=O` [arketamine, R(−)-ketamine], the “glucose metabolism in the brain” value in [2] was “decreases glucose metabolism in the brain”. In addition, the psychotomimetic effects entry (in vivo) was “devoid of psychotomimetic effects”. Further, the rapid antidepressant effect entry in data set [3] was “greater and lasted longer than that of esketamine”.

As to `CN[C@]1(c2ccccc2Cl)CCCCC1=O` [esketamine, S(+)-ketamine], in data set [4], the “inhibition of dopamine transporters relative to arketamine” value is “eight times more”. Further, in data set [5], the “elimination from the human body” value was “more quickly than arketamine (R(−)-ketamine) or racemic ketamine”. Also, the “anaesthetic potency relative to arketamine (R-isomer)” value in data set [6] is on record as 3-4 times; in [6] (listed as S(+)ketamine), “three to four times”. Moreover, the “anesthetic potency relative to racemic ketamine” value in data set [6] (versus racemic ketamine) is reported as “two times”. Also, the “glucose metabolism in the brain” value in data set [2] was “increases glucose metabolism in the frontal cortex”. In addition, the “binding to sigma receptors” value in [7] is listed as “does not bind significantly”. The “recovery of cerebral functions” value (after anaesthesia, study persons) is “more rapid recovery of cerebral functions”. The results for the “affinity for the PCP binding site of the NMDA receptor relative to arketamine” value in data set [8] (listed as Esketamine) and in data set [8] (listed as S(+)ketamine) were 3-4 times and “three to four times greater”, respectively.
